Several values for one entry are separate records, joined by “and”; a condition that tells them apart may be missing. Equal values may be shown once. Read-outs that look alike come from different tables or passages of the source.
What was measured:
CETP in human plasma = system: CETP in human plasma; parameters: method as in Cao et al., 2011; settings: ref Cao et al., 2011, read-out: IC50 of CETP inhibition; cited from earlier work
[1] = Pharmacokinetics of evacetrapib in plasma, liver and brain after a single tail vein injection (UHPLC-MS-qTOF); assay type: in vivo, hCETPtg mice (C57BL/6J background); settings: for Brain peak concentration above plasma IC50: IC50 36 nM in human plasma; for k el: read-out: Kβ (elimination rate constant) (converted); for half-life: read-out: t1/2β (half-life) (converted); for Kp: accounting for residual blood, read-out: Tissue penetration ratio (AUC brain / AUC plasma); for MRT: read-out: MRT (mean residence time); for clearance: read-out: CL (drug clearance) (converted); for Vd: read-out: Vss (volume of distribution at steady state)
Experimental: The experiment was performed in conformity with the OECD Guidelines 417 ([OECD, 2010]). Male hCETPtg mice were chosen for the pharmacokinetic analysis. Mice were fed Teklad Global Diets #2018 from Envigo, Canada, for 8 weeks starting from birth, followed by a diet change of modified low-fat RD Western diet to match TD.08485 with 1% cholesterol from research diets #D16121201 for a duration of 3–4 weeks. Throughout that period, tap water was provided ad libitum. Initially, evacetrapib was solubilized in 20% of the final solution volume of Kolliphor® EL (pH range 6.0–8.0, cat# C5135) by alternating between 5 min intervals using an ultrasonic water bath at 4°C and a hot water bath at 50°C until complete dissolution. Then, 80% of the final volume was added (isotonic glucose solution 50 g/L glucose containing D-(+)-glucose Sigma cat# G7021 in MilliQ water, sterile filtered).
CETP inhibitor evacetrapib was administered through tail vein injection at doses of 40 mg/kg body weight (BW) or 120 mg/kg BW. Mice weighed 28.42 ± 3.16 g on the day of injection. They were randomly divided into two groups: 24 mice received a dose of 40 mg/kg BW of evacetrapib and the other 24 received a dose of 120 mg/kg BW. Mice from both groups were euthanized at 0, 0.5, 2, 6, 12, and 24 h after injection. Mice euthanized at later time points had continued access to food and water until the end of the experiment. Blood was collected (300–500 µL) at euthanasia for each mouse by cardiac puncture. Blood plasma was extracted using 10 µL of 1 M EDTA pH 8.0 solution in MilliQ water. Brain and liver tissues were collected immediately after euthanasia, rinsed in 0.9% NaCl solution, and snap-frozen in liquid nitrogen. Samples were stored at −80°C until analysis.
Sample preparation and digestion for evacetrapib analysis were performed using UHPLC-MS-qTOF. Working solutions from a stock of evacetrapib were prepared at concentrations of 10 μmol, 100 nmol, 1 nmol, 500 pmol, and 125 pmol per ml of methanol. Working solutions of anacetrapib used as an internal standard were prepared at concentrations of 10 μmol, 100 nmol, and 1 nmol per ml from a stock solution.
Brain and liver samples were homogenized using a polytron supplemented with a carbonate buffer at pH 9.8. The volume was adjusted such that each sample reached a final concentration of 100 mg/ml of buffer. A volume of 0.5 ml of homogenate was transferred to a Pyrex tube and enriched with 100 µL of 1 nmol/ml anacetrapib solution used as an internal standard. Then, samples were extracted twice using 4 ml of saturated ethyl acetate. For each extraction, samples were shaken for 30 min using a lateral shaker, followed by a centrifugation round (20 min, 3,000 rpm, 4°C). Organic phases were collected, combined, and then evaporated until dry under a nitrogen stream in a rotating bath at 40°C. The residues were resuspended in methanol. Samples were vortexed until no residues were left. Resuspended residues for both the brain and liver were then centrifuged (20 min, 3,000 rpm, 4°C). The supernatant was recovered, transferred into new vials, and injected into UHPLC-MS-qTOF. For the plasma measurement, 20 µL of plasma was enriched with 100 µL of 1 nmol/ml anacetrapib solution in a microtube. Evacetrapib was extracted using two steps of ethanol wash (200 µL) followed by an incubation time (30 min, 22°C) and centrifugation (5 min, 16,000 g, 10°C). Samples were dried under a gentle nitrogen stream to separate the liquid phase from the solid phase. The residues were subsequently dissolved in methanol, vortexed until no residues were left, and centrifuged (20 min, 3,000 rpm, 4°C). The supernatant was recovered, transferred into new vials, and injected into UHPLC-MS-qTOF.
Quantification was performed using a seven-point calibration curve with the internal standard correction prepared in the brain, liver, or plasma, respectively. […]

[2] = cited from earlier work
[3] = parameters: method as in Small et al., 2015; settings: ref Small et al., 2015; cited from earlier work
[4] = liver, 120 mg/kg BW i.v., 120 mg/kg
[5] = male, hCETPtg (C57BL/6J background), mouse, brain, iv, 40 mg/kg, brain, 40 mg/kg BW i.v.
[6] = male, hCETPtg (C57BL/6J background), mouse, brain, iv, 120 mg/kg, brain, 120 mg/kg BW i.v.
[7] = male, hCETPtg (C57BL/6J background), mouse, iv, plasma, 40 mg/kg BW i.v.
[8] = male, hCETPtg (C57BL/6J background), mouse, iv, plasma, 120 mg/kg BW i.v.
[9] = male, hCETPtg (C57BL/6J background), mouse, liver, iv, 40 mg/kg, liver, 40 mg/kg BW i.v.
[10] = male, hCETPtg (C57BL/6J background), mouse, liver, iv, 120 mg/kg, liver, 120 mg/kg BW i.v.
[11] = male, hCETPtg (C57BL/6J background), mouse, plasma, iv, 40 mg/kg, plasma, 40 mg/kg BW i.v.
[12] = male, hCETPtg (C57BL/6J background), mouse, plasma, iv, 120 mg/kg, plasma, 120 mg/kg BW i.v.

Cc1cc(C)c2c(c1)[C@@H](N(Cc1cc(C(F)(F)F)cc(C(F)(F)F)c1)c1nnn(C)n1)CCCN2C[C@H]1CC[C@H](C(=O)O)CC1 [evacetrapib]
IC50 (CETP in human plasma): 36 nM | Peak concentration in the brain after correction for residual blood ([1]; 40 mg/kg BW i.v.): 1.5 µM | Av. conc. in brain, calculated (corrected for residual blood) ([1]; 40 mg/kg BW i.v., 0 h): 0.00 nmol/g | Av. conc. in brain, measured (not corrected for residual blood) ([1]; 40 mg/kg BW i.v., 0 h): 2.05 nmol/g | Av. conc. in brain, calculated (corrected for residual blood) ([1]; 40 mg/kg BW i.v., 0.5 h): 1.5 nmol/g and 1.53 nmol/g | Av. conc. in brain, measured (not corrected for residual blood) ([1]; 40 mg/kg BW i.v., 0.5 h): 2.21 nmol/g | Av. conc. in brain, calculated (corrected for residual blood) ([1]; 40 mg/kg BW i.v., 2 h): 1.0 nmol/g and 1.03 nmol/g | Av. conc. in brain, measured (not corrected for residual blood) ([1]; 40 mg/kg BW i.v., 2 h): 1.41 nmol/g | Av. conc. in brain, calculated (corrected for residual blood) ([1]; 40 mg/kg BW i.v., 6 h): 0.5 nmol/g and 0.50 nmol/g | Av. conc. in brain, measured (not corrected for residual blood) ([1]; 40 mg/kg BW i.v., 6 h): 0.57 nmol/g | Av. conc. in brain, calculated (corrected for residual blood) ([1]; 40 mg/kg BW i.v., 12 h): 0.1 nmol/g and 0.11 nmol/g | Av. conc. in brain, measured (not corrected for residual blood) ([1]; 40 mg/kg BW i.v., 12 h): 0.12 nmol/g | Av. conc. in brain, calculated (corrected for residual blood) ([1]; 40 mg/kg BW i.v., 24 h): 0.00 nmol/g | Av. conc. in brain, measured (not corrected for residual blood) ([1]; 40 mg/kg BW i.v., 24 h): 0.00 nmol/g | Brain peak concentration above plasma IC50 ([1]; 40 mg/kg BW i.v.): approximately 40 fold | Peak concentration in the brain after correction for residual blood ([1]; 120 mg/kg BW i.v.): 16.7 µM | Av. conc. in brain, calculated (corrected for residual blood) ([1]; 120 mg/kg BW i.v., 0 h): 0 nmol/g and 0.00 nmol/g | Av. conc. in brain, measured (not corrected for residual blood) ([1]; 120 mg/kg BW i.v., 0 h): 22.2 nmol/g | Av. conc. in brain, calculated (corrected for residual blood) ([1]; 120 mg/kg BW i.v., 0.5 h): 16.7 nmol/g | Av. conc. in brain, measured (not corrected for residual blood) ([1]; 120 mg/kg BW i.v., 0.5 h): 25.8 nmol/g | Av. conc. in brain, calculated (corrected for residual blood) ([1]; 120 mg/kg BW i.v., 2 h): 15.3 nmol/g | Av. conc. in brain, measured (not corrected for residual blood) ([1]; 120 mg/kg BW i.v., 2 h): 17.1 nmol/g | Av. conc. in brain, calculated (corrected for residual blood) ([1]; 120 mg/kg BW i.v., 6 h): 5.0 nmol/g and 4.96 nmol/g | Av. conc. in brain, measured (not corrected for residual blood) ([1]; 120 mg/kg BW i.v., 6 h): 5.36 nmol/g | Av. conc. in brain, calculated (corrected for residual blood) ([1]; 120 mg/kg BW i.v., 12 h): 1.0 nmol/g and 1.00 nmol/g | Av. conc. in brain, measured (not corrected for residual blood) ([1]; 120 mg/kg BW i.v., 12 h): 1.11 nmol/g | Av. conc. in brain, calculated (corrected for residual blood) ([1]; 120 mg/kg BW i.v., 24 h): 0.02 nmol/g | Av. conc. in brain, measured (not corrected for residual blood) ([1]; 120 mg/kg BW i.v., 24 h): 0.03 nmol/g | Brain peak concentration above plasma IC50 ([1]; 120 mg/kg BW i.v.): ~450 fold | Increase of tissue penetration ratio from the low to the high dose ([1]; 120 vs 40 mg/kg BW i.v.): 1.63 fold | AUMC ([1]; brain, 40 mg/kg BW i.v.): 39.2 nmol x h^2/mL | AUC ([1]; brain, 40 mg/kg BW i.v., 24 h): 10.6 nmol x h/mL | AUMC ([1]; brain, 120 mg/kg BW i.v.): 395 nmol x h^2/mL | AUC ([1]; brain, 120 mg/kg BW i.v., 24 h): 115 nmol x h/mL | Time of peak plasma values ([1]; first sampling time point, 40 and 120 mg/kg BW i.v.): 0 h | Entry into brain tissue ([1]; hCETPtg mice, i.v. injection): does enter the mouse brain tissue | AUMC ([1]; liver, 40 mg/kg BW i.v.): 1183 nmol x h^2/mL | AUC ([1]; liver, 40 mg/kg BW i.v., 24 h): 267 nmol x h/mL | t1/2β (half-life) ([1]; liver, 40 mg/kg BW i.v., 40 mg/kg): 3.0 h | AUMC ([1]; liver, 120 mg/kg BW i.v.): 3167 nmol x h^2/mL | AUC ([1]; liver, 120 mg/kg BW i.v., 24 h): 881 nmol x h/mL | Kβ (elimination rate constant) [1, 4]: 0.2 h⁻¹ | t1/2β (half-life) [1, 4]: 3.2 h | k el [1, 5]: 5.56e-05 s⁻¹ | half-life [1, 5]: 2.8 h | k el [1, 6]: 8.33e-05 s⁻¹ | half-life [1, 6]: 2.5 h | Kp ([1]; male, hCETPtg (C57BL/6J background), mouse, brain, iv, 40 mg/kg BW i.v.): 0.08 | Kp ([1]; male, hCETPtg (C57BL/6J background), mouse, brain, iv, 120 mg/kg BW i.v.): 0.13 | Tmax ([1]; male, hCETPtg (C57BL/6J background), mouse, brain, iv, both doses, 40 and 120 mg/kg BW i.v., read-out: Time of peak concentration in the brain): 0.5 h | MRT ([1]; male, hCETPtg (C57BL/6J background), mouse, iv, brain, 40 mg/kg BW i.v.): 3.7 h | MRT ([1]; male, hCETPtg (C57BL/6J background), mouse, iv, brain, 120 mg/kg BW i.v.): 3.4 h | MRT ([1]; male, hCETPtg (C57BL/6J background), mouse, iv, liver, 40 mg/kg BW i.v.): 4.4 h | MRT ([1]; male, hCETPtg (C57BL/6J background), mouse, iv, liver, 120 mg/kg BW i.v.): 3.6 h | clearance [1, 7]: 0.157 mL/min | MRT [1, 7]: 2 h | Vd [1, 7]: 0.0185 L | clearance [1, 8]: 0.055 mL/min | MRT [1, 8]: 1.6 h | Vd [1, 8]: 0.0053 L | k el [1, 9]: 5.56e-05 s⁻¹ | half-life [1, 9]: 2.8 h | k el [1, 10]: 8.33e-05 s⁻¹ | half-life [1, 10]: 2.5 h | k el [1, 11]: 0.000111 s⁻¹ | half-life [1, 11]: 2.3 h | k el [1, 12]: 5.56e-05 s⁻¹ | half-life [1, 12]: 3 h | AUMC ([1]; plasma, 40 mg/kg BW i.v.): 398 nmol x h^2/mL | Kα ([1]; plasma, 40 mg/kg BW i.v.): 6.5 h⁻¹ | t1/2α ([1]; plasma, 40 mg/kg BW i.v.): 0.1 h | AUC ([1]; plasma, 40 mg/kg BW i.v., 24 h): 203 nmol x h/mL | AUMC ([1]; plasma, 120 mg/kg BW i.v.): 2297 nmol x h^2/mL | Kα ([1]; plasma, 120 mg/kg BW i.v.): 1.8 h⁻¹ | t1/2α ([1]; plasma, 120 mg/kg BW i.v.): 0.4 h | AUC ([1]; plasma, 120 mg/kg BW i.v., 24 h): 1418 nmol x h/mL | Tolerated dose ([2]; rat, in vivo, po): up to 600 mg/kg BW/day | Oral absorption fraction ([2]; rats, oral gavage, ref Takubo et al., 2014, Simic et al., 2017): 25% | logP (octanol to water partition coefficient) [3]: 7.56
